Measured values: patent US7994279B2, “Altered peptide ligands of GAD65” (The University of Toledo, priority 2006, dated 2011)

Key:
HLA.A2 = assay: Binding of GAD65 546-554 fragments to human MHC class I
Description: Treatments which reduce GAD65 response can ameliorate Type 1 diabetes in NOD mice (spontaneous responses in NOD and NOD.HLA.A2 mice; the GAD65 546-554 fragments bind Kd and HLA.A2). Unlike the GAD65 molecule, the APL compositions can target a specific set of T cells and reduce the risk of accidental activation of pathogenic T cells.
The mouse (Kd) and human (HLA-A2) are associated with increased risk of Type 1 diabetes.

CTL clone 14.86 = assay: THF release by CTL clone 14.86 (FIG. 8, Table 2); assay type: cell-based; settings: for Percent Reduction of THF: clone 14.86
Description: ID No.:11] decreases THF of CTL clone 14.86.

CTL clones = assay: IFN release by CTL clones (FIG. 7, Table I); assay type: cell-based; parameters: Percent Reduction of IFN release: concentration or dose not given beside the values

binding to HLA.A2 (HLA.A2)	Substance	THF of CTL clone (effect in words) (CTL clone 14.86; CTL clone 14.86)	Percent Reduction of THF (CTL clone 14.86; A375) [%]	Percent Reduction of THF (CTL clone 14.86; B7) [%]	Percent Reduction of IFN release (CTL clones; clone 14.69, A375) [%]	Percent Reduction of IFN release (CTL clones; clone 14.69, B7) [%]	Percent Reduction of IFN release (CTL clones; clone 14.81, A375) [%]	Percent Reduction of IFN release (CTL clones; clone 14.81, B7) [%]	Percent Reduction of IFN release (CTL clones; clone 14.86, A375) [%]	Percent Reduction of IFN release (CTL clones; clone 14.86, B7) [%]	IFN release (effect in words) (CTL clones; various CLT clones)
bind	GAD65 546-554: natural 546-554 fragment of glutamic acid decarboxylase GAD65; probably SEQ.ID No. 2 (SYQPLGDKV)										
	S-Y-Q-P-L-G-D-K-A (SYQPLGDKA) [APL-70]	decreases THF	37	34	41	27	31	23	16	17	decreases IFN release
